Active and inactive are the calls of the source. The rule behind the calls is not given here.
Legend:
Homo sapiens = species: Homo sapiens; assay: Selectivity index, ratio of IC50 for human MAO-A to IC50 for human MAO-B
[1] = Antioxidant activity assessed as DPPH radical scavenging activity after 30 mins; type: functional
[2] = molecular target: T1, Amine oxidase [flavin-containing] B (Homo sapiens, UniProt P27338); assay: Inhibition of human MAO-B using p-tyramine as substrate preincubated for 15 mins followed by substrate addition measured after 20 mins by fluorescence-based Amplex Red MAO assay
T1 sequence (P27338 whole entry): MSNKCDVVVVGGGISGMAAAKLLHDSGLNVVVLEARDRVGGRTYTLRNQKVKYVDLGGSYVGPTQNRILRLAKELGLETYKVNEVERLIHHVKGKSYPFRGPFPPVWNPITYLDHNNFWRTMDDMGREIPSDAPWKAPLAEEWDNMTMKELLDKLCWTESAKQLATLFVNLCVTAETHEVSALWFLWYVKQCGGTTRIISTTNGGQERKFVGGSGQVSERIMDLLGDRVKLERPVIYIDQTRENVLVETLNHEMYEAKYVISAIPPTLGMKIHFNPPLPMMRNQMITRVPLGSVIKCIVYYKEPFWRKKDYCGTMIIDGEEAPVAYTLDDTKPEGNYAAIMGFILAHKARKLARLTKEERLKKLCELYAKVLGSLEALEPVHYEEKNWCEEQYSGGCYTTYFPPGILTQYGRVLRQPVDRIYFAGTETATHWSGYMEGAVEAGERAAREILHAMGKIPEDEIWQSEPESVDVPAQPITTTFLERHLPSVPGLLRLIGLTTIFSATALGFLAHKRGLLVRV

[3] = molecular target: T2, Amine oxidase [flavin-containing] A (Homo sapiens, UniProt P21397); assay: Inhibition of human MAO-A at 200 uM using p-tyramine as substrate preincubated for 15 mins followed by substrate addition measured after 20 mins by fluorescence-based Amplex Red MAO assay
T2 sequence (P21397 whole entry): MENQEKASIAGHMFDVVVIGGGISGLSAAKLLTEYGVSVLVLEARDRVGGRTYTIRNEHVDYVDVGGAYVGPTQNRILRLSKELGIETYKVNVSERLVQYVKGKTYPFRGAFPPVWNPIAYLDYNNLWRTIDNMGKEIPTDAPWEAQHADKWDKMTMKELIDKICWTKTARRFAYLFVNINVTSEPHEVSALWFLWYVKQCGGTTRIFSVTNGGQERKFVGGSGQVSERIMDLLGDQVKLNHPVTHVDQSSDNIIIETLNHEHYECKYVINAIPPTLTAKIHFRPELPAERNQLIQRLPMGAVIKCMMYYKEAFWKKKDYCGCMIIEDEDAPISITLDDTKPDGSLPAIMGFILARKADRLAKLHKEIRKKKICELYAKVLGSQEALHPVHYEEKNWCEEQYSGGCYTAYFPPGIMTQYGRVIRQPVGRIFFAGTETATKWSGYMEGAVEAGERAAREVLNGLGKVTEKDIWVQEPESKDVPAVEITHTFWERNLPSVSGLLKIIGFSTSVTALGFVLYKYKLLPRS

PC-12 [4] = assay: Cytotoxicity against rat PC12 cells at 25 uM after 24 hrs by MTT assay; type: cell-based; conditions: pc-12, 24 h
[5] = molecular target: Amyloid-beta precursor protein (Homo sapiens) (UniProt P05067); assay: Inhibition of self-induced aggregation of amyloid beta (1 to 42 residues) (unknown origin) at 25 uM incubated for 48 hrs by Thioflavin T fluorescence assay relative to control
Chain of Amyloid-beta precursor protein (Homo sapiens) (P05067 whole entry, the tested form may be a part): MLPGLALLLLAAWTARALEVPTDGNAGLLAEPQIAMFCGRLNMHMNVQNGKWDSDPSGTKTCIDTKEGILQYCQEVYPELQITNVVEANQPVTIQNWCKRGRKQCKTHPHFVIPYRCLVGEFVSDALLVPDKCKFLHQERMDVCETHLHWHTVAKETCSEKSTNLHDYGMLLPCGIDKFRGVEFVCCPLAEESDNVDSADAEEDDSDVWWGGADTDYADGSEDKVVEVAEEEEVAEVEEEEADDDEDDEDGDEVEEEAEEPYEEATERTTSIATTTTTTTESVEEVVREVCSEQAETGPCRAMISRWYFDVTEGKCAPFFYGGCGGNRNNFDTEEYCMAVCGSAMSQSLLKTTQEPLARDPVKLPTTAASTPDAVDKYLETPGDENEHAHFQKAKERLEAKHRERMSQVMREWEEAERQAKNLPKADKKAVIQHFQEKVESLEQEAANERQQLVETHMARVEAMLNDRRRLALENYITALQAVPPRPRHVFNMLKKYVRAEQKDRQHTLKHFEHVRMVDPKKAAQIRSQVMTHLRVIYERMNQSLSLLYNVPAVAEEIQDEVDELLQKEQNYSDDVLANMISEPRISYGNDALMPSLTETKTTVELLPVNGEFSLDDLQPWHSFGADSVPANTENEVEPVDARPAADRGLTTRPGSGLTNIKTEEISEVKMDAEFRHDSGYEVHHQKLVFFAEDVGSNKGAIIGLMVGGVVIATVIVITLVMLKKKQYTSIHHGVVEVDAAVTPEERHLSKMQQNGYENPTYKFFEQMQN

[6] = Antioxidant activity assessed as ABTS radical scavenging activity at 25 uM after 6 mins; type: functional
PC-12 [7] = assay: Neuroprotective activity against H2O2-induced cytotoxicity in rat PC12 cells assessed as increase in cell viability at 25 uM preincubated for 24 hrs followed by H2O2 addition and measured after 24 hrs by MTT assay; type: functional, cell-based
[8] = molecular target: T2, Amine oxidase [flavin-containing] A; assay: Inhibition of human MAO-A using p-tyramine as substrate preincubated for 15 mins followed by substrate addition measured after 20 mins by fluorescence-based Amplex Red MAO assay
in vitro = assay: in vitro; set-up: dose or concentration left out as unconfirmed; conditions: PAMPA
Description: Permeability of the compound at 100 mg/ml after 16 hrs by BBB-PAMPA method

SMILES | Ratio IC50 (Homo sapiens) | IC50 [1] [µM] | IC50 [2] [µM] | inhibition (INH) [3] | inhibition [5] [%] | IC50 [8] [µM] | Activity (PC-12 [4]) | Activity (umolequiv/umol) [6] | Activity (PC-12 [7]) | Papp at 16 h (in vitro) [×10⁻⁶ cm/s]
C[C@]12CC[C@@H]3c4ccc(O)cc4CC[C@H]3[C@@H]1CC[C@@H]2O [ESTRADIOL] |  |  |  |  |  |  |  |  |  | 9.17
Oc1c(Br)cc(Br)cc1/C=N/c1ccc(OCc2ccccc2)cc1 | > 9.23 | > 200 | 10.8 | Not Active | 66.7 |  | Non-Toxic |  |  | 
Cc1ccc(/C=N/c2ccc(OCc3ccccc3)cc2)c(O)c1 | > 4.09 | > 200 | 24.4 | Not Active | 60.1 |  | Non-Toxic |  |  | 
CCn1cc(C(=O)O)c(=O)c2cc(F)c(N3CCNC(C)C3)c(F)c21 (configuration not stated) [LOMEFLOXACIN] |  |  |  |  |  |  |  |  |  | 1.59
COc1ccc(/C=N/c2ccc(OCc3ccccc3)cc2)c(O)c1 | > 4.24 | > 200 | 23.6 | Not Active | 69.5 |  | Non-Toxic |  |  | 
Oc1ccc2ccccc2c1/C=N/c1ccc(OCc2ccccc2)cc1 | > 5.22 | > 200 | 19.2 | Not Active | 73.1 |  | Non-Toxic |  |  | 
Oc1ccc(F)cc1/C=N/c1ccc(OCc2ccccc2)cc1 | > 6.54 | > 200 | 15.3 | Not Active | 84.4 |  | Non-Toxic |  |  | 
COc1cccc(/C=N/c2ccc(OCc3ccccc3)cc2)c1O | > 15.4 | > 200 | 6.5 | Not Active | 53.4 |  | Non-Toxic |  |  | 
Oc1ccc(/C=N/c2ccc(OCc3ccccc3)cc2)c(O)c1 | > 14.8 | > 200 | 6.78 | Not Active | 59.8 |  | Non-Toxic |  |  | 

The next lines start with results.

Ratio IC50 (Homo sapiens) | IC50 [1] [µM] | IC50 [2] [µM] | inhibition (INH) [3] | inhibition [5] [%] | IC50 [8] [µM] | SMILES | Activity (PC-12 [4]) | Activity (umolequiv/umol) [6] | Activity (PC-12 [7]) | Papp at 16 h (in vitro) [×10⁻⁶ cm/s]
> 4.06 | > 200 | 24.6 | Not Active | 61.9 |  | Cc1ccc(O)c(/C=N/c2ccc(OCc3ccccc3)cc2)c1 | Non-Toxic |  |  | 
1.66 | 13.3 | 6.87 |  | 72.5 | 11.4 | Oc1cccc(/C=N/c2ccc(OCc3ccccc3)cc2)c1O | Non-Toxic | 0.6 | Active | 
> 6.47 | > 200 | 15.5 | Not Active | 53.7 |  | Cc1cccc(/C=N/c2ccc(OCc3ccccc3)cc2)c1O | Non-Toxic |  |  | 
> 4.03 | > 200 | 24.8 | Not Active | 59.6 |  | Oc1ccc(Cl)cc1/C=N/c1ccc(OCc2ccccc2)cc1 | Non-Toxic |  |  | 
> 9.34 | > 200 | 10.7 | Not Active | 56.6 |  | COc1ccc(O)c(/C=N/c2ccc(OCc3ccccc3)cc2)c1 | Non-Toxic |  |  | 
> 3.98 | > 200 | 25.1 | Not Active | 63.3 |  | Oc1ccccc1/C=N/c1ccc(OCc2ccccc2)cc1 | Non-Toxic |  |  | 
> 9.86 | 23.9 | 10.1 | Not Active | 88.5 |  | Oc1cc(O)c(/C=N/c2ccc(OCc3ccccc3)cc2)c(O)c1 | Non-Toxic | 0.69 | inactive | 
> 1.64 | > 200 | 60.9 | Not Active | 70.2 |  | O=[N+]([O-])c1ccc(O)c(/C=N/c2ccc(OCc3ccccc3)cc2)c1 | Non-Toxic |  |  | 
> 3.15 | > 200 | 31.7 | Not Active | 54.3 |  | Oc1ccc(Br)cc1/C=N/c1ccc(OCc2ccccc2)cc1 | Non-Toxic |  |  | 
15.3 | 21.3 | 1.23 |  | 49.2 | 18.8 | Oc1ccc(O)c(/C=N/c2ccc(OCc3ccccc3)cc2)c1 | Non-Toxic | 0.97 | Active | 
 | 82.7 |  |  |  |  | Oc1ccc(/C=C/c2cc(O)cc(O)c2)cc1 [RESVERATROL] |  | 1.57 |  | 
